According to US5132401A (George Washington University, Office of Sponsored Research, priority 1989, dated 1992):

Tested on: anterior pituitary cells
Assay: PRL assay: in vitro prolactin release from normal anterior pituitary cells, RIA
Type: cell-based, Sprague-Dawley rats
Details: maximum stimulatory concentration of TRH (100 nM); FIG. 12
Protocol: Inhibitory neurohormones and drugs were added during the final 20 minutes of the second rinse. […] After incubations, the medium is quickly removed and saved for radioimmunoassay (RIA).
PRL and GH were determined by standard RIA techniques (media diluted 1:30, 25-70 μl samples) using materials and protocols supplied by the NIDDK Rat Pituitary Hormone Distribution Program. Inter- and intra-assay variations for PRL and GH were less than 8% to 10%, respectively. All samples were assayed in duplicate, with results expressed in terms of NIDDK standards (rat PRL RP-2 and rat GH RP-1).

NC(=O)[C@@H]1CCCN1C(=O)[C@H](Cc1cnc[nH]1)NC(=O)[C@@H]1CCC(=O)N1 [TRH, thyrotropin releasing hormone]
increase in PRL release compared to the control value: 480%
